Source: patent US7314625B2 (priority 2000, dated 2008)

Tested on: P. aeruginosa PAK strain
Assay type: cell-based

In the case of “acetyl-KCTSDQDEQFLPKGCSK-NH2 (Ac-KCTSDQDEQFLPKGCSK-NH2; cysteine pairing not given here) [long pilin peptide]”, the “reduction of adherence to A549 cells” value is reported as “approximately 50%”.
“acetyl-QIDPEFK-NH2 (Ac-QIDPEFK-NH2) [scrambled peptide]” was tested, and the “reduction of adherence to A549 cells” value was “did not interfere with adherence”.
In the case of “acetyl-DEQFIPK-NH2 (Ac-DEQFIPK-NH2) [core pilin peptide]”, the “reduction of adherence to A549 cells” value is reported as “approximately 50%”.
